{"source": "patent US20030187056A1", "about": "“Live cell procedures to identify to identify compounds modulating intracellular distribution of phosphodiesterase( pde) enzymes” (priority 2000, published 2003)", "key": {"HSPDE4A4-EGFP [1]": {"molecular_target": "T1, HSPDE4A4-EGFP (Homo sapiens, UniProt P27815)", "T1 construct": "expressed in transfected cells", "test": "Spot formation in CHO cells transfected with HSPDE4A4-EGFP", "format": "cell-based", "procedure": "Chinese hamster ovary cells (CHO), are transfected with the plasmids described in Example 1 above using the transfection agent FuGENE™ 6 (Boehringer Mannheim Corp, USA) according to the method recommended by the suppliers. Stable transfectants are selected using 1 mg/ml G418 sulphate (Calbiochem) in the growth medium (HAM's F12 nutrient mix with Glutamax-1, 10% foetal bovine serum (FBS), 100 μg penicillin-streptomycin mixture ml^−1 (GibcoBRL, supplied by Life Technologies, Denmark). Cell are cultured at 37° C. in 100% humidity and conditions of normal atmospheric gases supplemented with 5% CO2.\nFor fluorescence microscopy, cells are allowed to adhere to Lab-Tek chambered coverglasses (Nalge Nunc International, Naperville USA) for at least 24 hours and are then cultured to about 80% confluence. Cells can also be grown in plastic 96-well plates (Polyfiltronics Packard 96-View Plate or Costar Black Plate, clear bottom; both types tissue culture treated) for imaging purposes. Prior to experiments, the cells are cultured over night without G418 sulphate in HAM F-12 medium with glutamax, 100 μg penicillin-streptomycin mixture ml^−1 and 10% FBS. This medium has low autofluorescence enabling fluorescence microscopy of cells straight from the incubator. For certain tests requiring medium of defined composition, particularly with regard to the presence of specific cell growth factors, the HAM's culture medium is replaced prior to imaging with a buffered saline solution (KRW buffer) containing (in mM) 3.6 KCl, 140 NaCl, 2 NaHCO3, 0.5 NaH2PO4, 0.5 MgSO4, 1.5 CaCl2, 10 Hepes, 5 glucose, pH7.4.\nChanges in cellular distribution of a transfected probe can be imaged and quantified in an automated fashion. For this purpose cells are cultured to near 80% to 90% confluence in coverglass chambers or plastic 96-well plates, given the relevant treatment and allowed to respond. At the end of the response period, cells are fixed in 4% formaldehyde buffer (Lillies fixative buffer, pH7.0: Bie and Berntsen A/S, Denmark) for 30 minutes to 2 hours, then washed in phosphate buffered saline (PBS, Life Technologies, Denmark). Nuclear DNA is stained with 1 μM Hoechst 33258 (Molecular Probes, Eugene, Oreg., USA) in PBS for 10 minutes at 25° C., then washed twice in PBS. Automated images are collected on a Nikon Diaphot 300 (Nikon, Japan) using a Nikon Plan Fluor 20X/0.5NA objective lens. The basic microscope is fitted with a motorised specimen stage and motorised focus control (Prior Scientific, Fulbourn, Cambridge UK), excitation filter wheel (Sutter Instruments, Novato Calif. USA) and Photometrics PXL series camera with a KAF1400 CCD chip (Photometrics, Tucson, Ariz. USA), each of these items being under the control of an Macintosh 7200/90 computer (Apple Computer, Cupertino, Calif. USA). Automation of stage positioning, focus, excitation filter selection, and image acquisition is performed using macros written in-house, running under IPLab Spectrum for Macintosh (Scanalytics, Fairfax, Va. USA). Fluorescence illumination comes from a 100 W HBO lamp. Images are collected in pairs, the first using a 340/10 nm excitation filter, the second with a 475RDF40 excitation filter (Chroma, Brattleboro, Vt.). Both images are collected via the same dichroic and emission filters, which are optimised for EGFP applications (XF100 filter set, Omega Optical, Brattleboro, Vt.). While the choice of filters for imaging the nuclear stain (Hoechst 33258) is not well matched to that dye's spectral properties, resulting in lower image intensity, it greatly improves the throughput of the procedure by allowing both images to be collected using the same dichroic and emission filter. This eliminates any image registration problems and focus shifts which would result from using two different filter sets, which would require more steps in the acquisition procedure and more extensive image processing to overcome."}, "HSPDE4A4-ΔLR2-EGFP": {"molecular_target": "T2, HSPDE4A4-ΔLR2-EGFP (Homo sapiens, UniProt P27815, DEL313-320)", "T2 construct": "expressed in transfected cells", "T2 sequence (P27815 with tags, fused parts or gaps DEL313-320)": "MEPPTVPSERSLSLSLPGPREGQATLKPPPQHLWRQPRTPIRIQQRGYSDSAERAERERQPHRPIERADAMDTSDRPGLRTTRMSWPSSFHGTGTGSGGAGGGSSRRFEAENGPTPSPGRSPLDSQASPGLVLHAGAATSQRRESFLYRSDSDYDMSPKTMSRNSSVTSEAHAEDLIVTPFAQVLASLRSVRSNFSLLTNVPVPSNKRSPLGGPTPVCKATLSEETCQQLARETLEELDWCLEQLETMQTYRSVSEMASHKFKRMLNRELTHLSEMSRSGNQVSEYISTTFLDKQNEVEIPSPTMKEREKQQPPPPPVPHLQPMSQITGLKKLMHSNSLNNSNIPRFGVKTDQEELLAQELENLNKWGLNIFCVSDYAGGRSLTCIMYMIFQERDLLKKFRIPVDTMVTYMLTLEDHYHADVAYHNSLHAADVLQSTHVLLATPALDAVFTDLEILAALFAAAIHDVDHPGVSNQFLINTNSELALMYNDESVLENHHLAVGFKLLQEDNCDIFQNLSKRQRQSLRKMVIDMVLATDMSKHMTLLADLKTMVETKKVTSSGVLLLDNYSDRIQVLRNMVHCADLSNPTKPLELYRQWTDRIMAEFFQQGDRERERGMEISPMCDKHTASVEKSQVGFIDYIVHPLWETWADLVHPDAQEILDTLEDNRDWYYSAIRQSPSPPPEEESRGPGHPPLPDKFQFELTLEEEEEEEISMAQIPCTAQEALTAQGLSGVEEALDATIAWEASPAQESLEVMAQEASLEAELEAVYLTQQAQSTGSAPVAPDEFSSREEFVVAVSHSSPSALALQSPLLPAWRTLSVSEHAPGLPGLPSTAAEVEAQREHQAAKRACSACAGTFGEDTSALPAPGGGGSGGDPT", "test": "Spot formation in CHO cells transfected with HSPDE4A4-ΔLR2-EGFP", "format": "cell-based", "conditions": "30 to 0.01 μM", "procedure": "Stably transfected (non-clonal) cells are allowed to adhere to chambered coverglasses in HAM's F12 medium containing 10% FBS.\n(§1) The cells are then fixed with 4% formaldehyde buffer (pH7) for 1 hour, washed with PBS and stained with 1 μM Hoechst 33258 in PBS for 10 minutes at 25° C., then washed twice in PBS. Automated images are collected and analysed for the number of spots per cell as described in Example 2."}, "HSPDE4A4-H506N-EGFP": {"molecular_target": "T3, HSPDE4A4-H506N-EGFP (Homo sapiens, UniProt P27815, H506N)", "T3 construct": "expressed in transfected cells", "T3 sequence (P27815 whole entry H506N)": "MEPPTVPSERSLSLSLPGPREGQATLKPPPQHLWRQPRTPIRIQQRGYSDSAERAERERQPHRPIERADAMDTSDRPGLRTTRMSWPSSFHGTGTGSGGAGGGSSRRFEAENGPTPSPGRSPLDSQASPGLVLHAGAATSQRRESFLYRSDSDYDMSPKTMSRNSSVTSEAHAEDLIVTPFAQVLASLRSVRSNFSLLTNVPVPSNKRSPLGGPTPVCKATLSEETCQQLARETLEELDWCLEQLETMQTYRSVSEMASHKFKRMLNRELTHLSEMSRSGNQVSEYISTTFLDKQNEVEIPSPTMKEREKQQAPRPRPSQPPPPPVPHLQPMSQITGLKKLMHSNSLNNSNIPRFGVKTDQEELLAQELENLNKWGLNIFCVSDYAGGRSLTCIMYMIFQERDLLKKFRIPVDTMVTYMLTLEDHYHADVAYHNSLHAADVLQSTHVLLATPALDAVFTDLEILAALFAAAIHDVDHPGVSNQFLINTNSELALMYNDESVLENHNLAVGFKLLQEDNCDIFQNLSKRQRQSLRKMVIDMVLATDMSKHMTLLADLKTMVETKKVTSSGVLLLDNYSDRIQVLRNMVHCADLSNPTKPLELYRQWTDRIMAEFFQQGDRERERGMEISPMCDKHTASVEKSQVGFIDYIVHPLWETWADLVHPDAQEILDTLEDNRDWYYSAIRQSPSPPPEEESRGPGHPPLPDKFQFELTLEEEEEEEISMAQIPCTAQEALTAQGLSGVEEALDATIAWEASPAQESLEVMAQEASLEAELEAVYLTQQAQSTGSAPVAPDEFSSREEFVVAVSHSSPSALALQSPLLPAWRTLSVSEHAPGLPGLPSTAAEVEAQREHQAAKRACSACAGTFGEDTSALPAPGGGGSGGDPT", "test": "Spot formation in CHO cells transfected with HSPDE4A4-H506N-EGFP", "format": "cell-based", "conditions": "clonal cells, over the concentrations tested", "procedure": "as §1\nas §1, with “Cells are grown in HAM's F12 medium plus 10% FBS plus various concentrations of inhibitors for 23.5 hours. The” for “The”"}, "HSPDE4A4-EGFP [2]": {"molecular_target": "T1, HSPDE4A4-EGFP", "test": "Dispersal of preformed Rolipram-induced spots, HSPDE4A4-EGFP CHO cells", "format": "cell-based", "conditions": "yes/no", "procedure": "For the microscopic assessment of spot dispersal, stably transfected (non-clonal) cells transfected with the HSPDE4A4-EGFP probe are allowed to adhere to chambered coverglasses in HAM's F12 medium containing 10% FBS. […] Chambered coverglasses are then transferred to a Zeiss 135 inverted microscope for time lapse imaging as described in Example 2, above. At a given point after starting an experiment, a mixture of IBMX and forskolin is added to give final concentrations of 1 mM and 50 μM, respectively. Images are captured at regular intervals to form a time lapse sequence of the response, also as described in Example 2.\nThe plate is then run in the FLIPR system at 37° C., with addition of IBMX and forskolin to all wells at final concentrations of 500 μM and 50 μM respectively after the first minute. The experiment is continued for a further 45 minutes, readings being taken at intervals of 1 minute.\nNon-clonal CHO cells stably transfected with the HSPDE4A4-EGFP probe are allowed to adhere to chambered coverglasses in HAM's F12 medium containing 10% FBS and to grow for 24 hours.\nClonal CHO cells stably transfected with the HSPDE4A4-EGFP probe are allowed to adhere to chambered coverglasses in HAM's F12 medium containing 10% FBS and to grow for 5 days without change of medium, which by this time is serum-depleted.\nIndividual wells are then treated with either 50 μM forskolin plus 500 μM IBMX or 200 nM PMA plus 2 μM ionomycin."}, "HSPDE4A1-EGFP": {"molecular_target": "T4, HSPDE4A1-EGFP (Homo sapiens, UniProt P27815)", "T4 construct": "the ca. 1.95 kb coding region of HSPDE4A1 (GenBank Acc.no. U97584) is amplified; expressed in transfected cells", "T4 sequence (P27815 1-647 isoform P27815-4)": "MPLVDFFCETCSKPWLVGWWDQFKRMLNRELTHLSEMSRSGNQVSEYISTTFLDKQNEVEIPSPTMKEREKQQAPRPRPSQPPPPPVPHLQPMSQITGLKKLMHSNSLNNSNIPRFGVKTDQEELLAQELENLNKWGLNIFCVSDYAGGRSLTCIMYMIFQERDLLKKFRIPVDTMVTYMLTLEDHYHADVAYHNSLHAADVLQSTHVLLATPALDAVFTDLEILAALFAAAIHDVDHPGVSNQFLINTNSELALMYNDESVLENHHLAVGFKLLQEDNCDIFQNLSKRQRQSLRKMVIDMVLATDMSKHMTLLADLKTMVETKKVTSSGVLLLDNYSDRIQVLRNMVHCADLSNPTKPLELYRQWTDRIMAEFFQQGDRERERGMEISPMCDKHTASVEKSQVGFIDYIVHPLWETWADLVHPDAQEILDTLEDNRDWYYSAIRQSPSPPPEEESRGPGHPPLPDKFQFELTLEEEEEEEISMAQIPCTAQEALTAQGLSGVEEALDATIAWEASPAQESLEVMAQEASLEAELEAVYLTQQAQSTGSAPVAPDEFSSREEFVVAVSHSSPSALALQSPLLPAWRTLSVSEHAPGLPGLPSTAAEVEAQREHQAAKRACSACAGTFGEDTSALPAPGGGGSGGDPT", "test": "Competitive assay: reversal of Rolipram-induced spot dispersal, HSPDE4A1-EGFP CHO cells", "format": "cell-based", "conditions": "predicted"}, "PDE4": {"system": "PDE4", "conditions": "yes/no; cited from earlier work"}, "[3]": {"conditions": "human, in vivo; cited from earlier work"}}, "data": [{"molecule": "COc1ccc([C@]2(C#N)CC[C@@H](C(=O)O)CC2)cc1OC1CCCC1", "note": "[Ariflo®]", "values": [{"measurement": "formation of spots, compound alone (in words)", "setting": "HSPDE4A4-EGFP [1]; observed up to 24 hours", "value": "does not by itself produce spots"}, {"measurement": "Formation of PDE4A4 spots", "setting": "HSPDE4A4-EGFP [1]; yes/no", "value": "no"}, {"measurement": "formation of spots, compound alone (in words)", "setting": "HSPDE4A4-ΔLR2-EGFP", "value": "does not by itself produce spots"}, {"measurement": "spot formation response (in words)", "setting": "HSPDE4A4-H506N-EGFP", "value": "does not by itself produce spots"}, {"measurement": "Removal of Rolipram-induced PDE4A4-spots", "setting": "HSPDE4A4-EGFP [2]", "value": "yes"}, {"measurement": "Reversal of Rolipram-induced removal of PDE4A1 spots (predicted, not tested)", "setting": "HSPDE4A1-EGFP", "value": "yes"}, {"measurement": "Inhibition of PDE4 catalytic activity", "setting": "PDE4", "value": "yes"}, {"measurement": "Clinical effect", "setting": "[3]", "value": "anti-"}, {"measurement": "Emesis", "setting": "[3]", "value": "no"}]}]}
